Consider 21 compounds from BindingDB's records for doi:10.1111/cbdd.12724 (Hamdard University (Jamia Hamdard), 2016).

Molecules are shown by their SMILES.

For this test, the target named is Glycogen synthase kinase-3 beta (Homo sapiens, UniProt P49841). The test is described as follows: Kinase-Glo Assay. The conditions noted are these: 30 °C. The method, then: The final DMSO concentration in the reaction mixture was <1%. After incubation at 30 °C for 30 min, the enzymatic reaction was quenched with 40 μL of Kinase-Glo reagent. Luminescence was recorded after 10 min using Infinite F200® PRO multimode reader (Tecan Group Ltd., Männedorf, Switzerland). The activity is proportional to the difference of the total and consumed ATP.
Chain of Glycogen synthase kinase-3 beta (P49841 whole entry): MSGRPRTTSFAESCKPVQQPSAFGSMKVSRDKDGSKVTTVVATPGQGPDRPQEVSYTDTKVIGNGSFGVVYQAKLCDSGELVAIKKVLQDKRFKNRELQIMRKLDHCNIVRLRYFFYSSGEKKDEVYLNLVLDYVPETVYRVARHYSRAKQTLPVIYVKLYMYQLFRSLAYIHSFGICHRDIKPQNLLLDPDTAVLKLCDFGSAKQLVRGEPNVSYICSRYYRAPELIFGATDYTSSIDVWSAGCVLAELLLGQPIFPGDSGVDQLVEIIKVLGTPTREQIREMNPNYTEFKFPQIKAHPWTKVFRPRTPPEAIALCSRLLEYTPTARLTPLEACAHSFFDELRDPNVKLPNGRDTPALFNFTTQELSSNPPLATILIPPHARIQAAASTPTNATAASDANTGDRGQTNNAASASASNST
One may read the IC50 as the midpoint of a concentration-inhibition curve. For the compound `O=c1oc2cccnc2n1Cc1cn(-c2ccc(Cl)cc2Cl)nn1` [3-((1-(2,4-dichlorophenyl)-1H-1,2,3-triazol-4-yl)methyl)oxazolo[4,5-b]pyridin-2(3H)-one (4r)], it took 10.8 µM to reach half-maximal inhibition (IC50).
The compound `O=c1oc2cccnc2n1Cc1cn(-c2ccccc2Br)nn1` [3-((1-(2-bromophenyl)-1H-1,2,3-triazol-4-yl)methyl)oxazolo[4,5-b]pyridin-2(3H)-one (4f)] displayed an IC50 of 0.31 µM.
In turn, `O=c1oc2cccnc2n1Cc1cn(-c2ccccc2Cl)nn1` [3-((1-(2-chlorophenyl)-1H-1,2,3-triazol-4-yl)methyl)oxazolo[4,5-b]pyridin-2(3H)-one (4g)] returned an IC50 of 0.19 µM.
As for `O=c1oc2cccnc2n1Cc1cn(-c2cccnc2Cl)nn1` [3-((1-(2-chloropyridin-3-yl)-1H-1,2,3-triazol-4-yl)methyl)oxazolo[4,5-b]pyridin-2(3H)-one (4t)], the figure is 11 µM.
As for `O=c1oc2cccnc2n1Cc1cn(-c2ccccc2F)nn1` [3-((1-(2-fluorophenyl)-1H-1,2,3-triazol-4-yl)methyl)oxazolo[4,5-b]pyridin-2(3H)-one (4i)], the figure is 0.37 µM; as for `COc1ccccc1-n1cc(Cn2c(=O)oc3cccnc32)nn1` [3-((1-(2-methoxyphenyl)-1H-1,2,3-triazol-4-yl)methyl)oxazolo[4,5-b]pyridin-2(3H)-one  (4q)], 0.74 µM.
The compound `O=c1oc2cccnc2n1Cc1cn(-c2ccc(Cl)c(Cl)c2)nn1` [3-((1-(3,4-dichlorophenyl)-1H-1,2,3-triazol-4-yl)methyl)oxazolo[4,5-b]pyridin-2(3H)-one (4s)] gave a half-inhibitory concentration (IC50) of 12.6 µM.
Next, `Cc1ccc(-n2cc(Cn3c(=O)oc4cccnc43)nn2)cc1C` [3-((1-(3,4-dimethylphenyl)-1H-1,2,3-triazol-4-yl)methyl)oxazolo[4,5-b]pyridin-3H)one (4j)]: 40.1 µM; `O=c1oc2cccnc2n1Cc1cn(-c2cccc(Cl)c2)nn1` [3-((1-(3-chlorophenyl)-1H-1,2,3-triazol-4-yl)methyl)oxazolo[4,5-b]pyridin-2(3H)-one (4k)]: 28.4 µM; `O=c1oc2cccnc2n1Cc1cn(-c2cccc([N+](=O)[O-])c2)nn1` [3-((1-(3-nitrophenyl)-1H-1,2,3-triazol-4-yl)methyl)oxazolo[4,5-b]pyridin-2(3H)-one (4o)]: 15.6 µM.
On to `O=c1oc2cccnc2n1Cc1cn(-c2ccc(Br)cc2)nn1` [3-((1-(4-bromophenyl)-1H-1,2,3-triazol-4-yl)methyl)oxazolo[4,5-b]pyridin-2(3H)-one (4b)], for which half-maximal inhibition (IC50) required 8.64 µM.
Compound `O=c1oc2cccnc2n1Cc1cn(-c2ccc(Cl)cc2)nn1` [3-((1-(4-chlorophenyl)-1H-1,2,3-triazol-4-yl)methyl)oxazolo[4,5-b]pyridin-2(3H)-one (4c)] returned an IC50 of 5.73 µM.
As for `CCOc1ccc(-n2cc(Cn3c(=O)oc4cccnc43)nn2)cc1` [3-((1-(4-ethoxyphenyl)-1H-1,2,3-triazol-4-yl)methyl)oxazolo[4,5-b]pyridin-2(3H)-one (4u)], the figure is 37.3 µM.
As for `CCc1ccc(-n2cc(Cn3c(=O)oc4cccnc43)nn2)cc1` [3-((1-(4-ethylphenyl)-1H-1,2,3-triazol-4-yl)methyl)oxazolo[4,5-b]pyridin-2(3H)-one (4h)], the figure is 12.7 µM.
On to `O=c1oc2cccnc2n1Cc1cn(-c2ccc(F)cc2)nn1` [3-((1-(4-fluorophenyl)-1H-1,2,3-triazol-4-yl)methyl)oxazolo[4,5-b]pyridin-2(3H)-one (4e)], for which the concentration for half-maximal inhibition (IC50) was determined as 2.49 µM.
On to `COc1ccc(-n2cc(Cn3c(=O)oc4cccnc43)nn2)cc1` [3-((1-(4-methoxyphenyl)-1H-1,2,3-triazol-4-yl)methyl)oxazolo[4,5-b]pyridin-2(3H)-one (4l)], for which 8.45 µM corresponded to half-maximal inhibition (IC50).
Next, `O=c1oc2cccnc2n1Cc1cn(-c2ccc([N+](=O)[O-])cc2)nn1` [3-((1-(4-nitrophenyl)-1H-1,2,3-triazol-4-yl)methyl)oxazolo[4,5-b]pyridin-2(3H)-one (4p)]: 17.1 µM; `CC(C)(C)c1ccc(-n2cc(Cn3c(=O)oc4cccnc43)nn2)cc1` [3-((1-(4-tert-butylphenyl)-1H-1,2,3-triazol-4-yl)methyl)oxazolo[4,5-b]pyridin-2(3H)-one (4m)]: 23.5 µM; `O=c1oc2cccnc2n1Cc1cn(-c2cccnc2)nn1` [3-((1-(pyridin-3-yl)-1H-1,2,3-triazol-4-yl)methyl)oxazolo[4,5-b]pyridin-2(3H)-one (4d)]: 0.23 µM.
As for `Cc1ccccc1-n1cc(Cn2c(=O)oc3cccnc32)nn1` [3-((1-o-tolyl-1H-1,2,3-triazol-4-yl)methyl)oxazolo[4,5-b]pyridin-2(3H)-one (4n)], the half-maximal inhibitory concentration (IC50) was determined as 0.65 µM.
Next, `O=c1oc2cccnc2n1Cc1cn(-c2ccccc2)nn1` [3-((1-phenyl-1H-1,2,3-triazol-4-yl)methyl)oxazolo[4,5-b]pyridin-2(3H)-one (4a)]: 10.1 µM.
